For the first test, the target named is T1, glucocorticoid receptor (GR) (Homo sapiens, UniProt P04150).
T1 construct: endogenous in cells; host or cells: HeLa (ATCC) cell lysate supernatant
T1 sequence (P04150 1-777): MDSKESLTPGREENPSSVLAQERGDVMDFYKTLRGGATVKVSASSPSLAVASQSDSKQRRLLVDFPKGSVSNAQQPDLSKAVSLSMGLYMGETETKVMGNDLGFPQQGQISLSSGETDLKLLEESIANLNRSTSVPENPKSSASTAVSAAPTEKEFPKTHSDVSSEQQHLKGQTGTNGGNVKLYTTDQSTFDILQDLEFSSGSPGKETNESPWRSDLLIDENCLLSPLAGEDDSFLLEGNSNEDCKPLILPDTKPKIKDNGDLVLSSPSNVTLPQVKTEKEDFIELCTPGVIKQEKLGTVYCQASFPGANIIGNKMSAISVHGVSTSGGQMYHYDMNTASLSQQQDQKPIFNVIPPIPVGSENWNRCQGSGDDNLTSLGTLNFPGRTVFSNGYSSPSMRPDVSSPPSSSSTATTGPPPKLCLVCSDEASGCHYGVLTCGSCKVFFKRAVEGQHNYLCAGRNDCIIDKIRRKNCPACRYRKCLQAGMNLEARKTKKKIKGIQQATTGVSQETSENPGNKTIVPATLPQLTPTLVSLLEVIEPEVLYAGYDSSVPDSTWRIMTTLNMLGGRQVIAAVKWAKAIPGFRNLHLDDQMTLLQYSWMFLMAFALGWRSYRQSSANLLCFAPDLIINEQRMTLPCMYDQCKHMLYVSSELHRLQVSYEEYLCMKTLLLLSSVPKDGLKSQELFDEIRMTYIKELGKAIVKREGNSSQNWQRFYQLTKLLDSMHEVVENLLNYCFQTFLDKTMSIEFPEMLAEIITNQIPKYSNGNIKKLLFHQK
Put plainly: Ligand binding assay (GR BIND), 3H-dexamethasone displacement, HeLa cell lysate. The conditions noted are these: Table 1; HeLa cell lysate, 3H-DEX. As to the method:
Binding Buffer: TEGM (10 mM Tris-HCl, 1 mM EDTA, 10% glycerol, 1 mM beta-mercaptoethanol, 10 mM Sodium Molybdate, pH 7.2)
50% HAP Slurry: Calbiochem Hydroxylapatite, Fast Flow, in 10 mM Tris, pH 8.0 and 1 mM EDTA.
Wash Buffer: 40 mM Tris, pH7.5, 100 mM KCl, 1 mM EDTA and 1 mM EGTA.
Dexmethasone-methyl-^3H, (DEX*); (Amersham cat# TRK645)
Dexamethasone (DEX) (Sigma, cat# D1756):
Phenol red-free Trypsin-EDTA is diluted in the same PBS 1:10. The cell layers are rinsed with 1× Trypsin, extra Trypsin is poured out, and the cell layers are incubated at 37° C. for ˜2 min. The flask is tapped and checked for signs of cell detachment. Once the cells begin to slide off the flask, the complete media is added. The cells are counted at this point, then diluted to the appropriate concentration and split into flasks or dishes for further culturing (Usually 1:3 to 1:6 dilution).
Preparation of Hela Cell Lysate
The cell pellet is washed twice with TEGM (10 mM Tris-HCl, 1 mM EDTA, 10% glycerol, 1 mM beta-mercaptoethanol, 10 mM Sodium Molybdate, pH 7.2). After the final wash, the cells are resuspended in TEGM at a concentration of 10^7 cells/mL. The cell suspension is snap frozen in liquid nitrogen or ethanol/dry ice bath and transferred to −80° C. freezer on dry ice. Before setting up the binding assay, the frozen samples are left on ice-water to just thaw (˜1 hr). Then the samples are centrifuged at 12,500 g to 20,000 g for 30 min at 4° C. The supernatant is used to set-up assay right away. If using 50 μL of supernatant, the test compound can be prepared in 50 μL of the TEGM buffer.
Procedure for Multiple Compound Screening
1×TEGM buffer is prepared, and the isotope-containing assay mixture is prepared in the following order: EtOH (2% final concentration in reaction), 3H-DEX (Amersham Biosciences) and 1×TEGM. [e.g. For 100 samples, 200 μL (100×2) of EtOH+4.25 μL of 1:10 ^3H-Dex stock+2300 μL (100×23) 1×TEGM]. The compound is serially diluted, e.g., if starting final conc. is 1 μM, and the compound is in 25 μL of solution, for duplicate samples, 75 μL of 4×1 μM solution is made and 3 μL of 100 μM is added to 72 μL of buffer, and 1:5 serial dilution.
25 μL of ^3H-DEX (6 nM) trace and 25 μL compound solution are first mixed together, followed by addition of 50 μL receptor solution. The reaction is gently mixed, spun briefly at about 200 rpm and incubated at 4° C. overnight. 100 μL of 50% HAP slurry is prepared and added to the incubated reaction which is then vortexed and incubated on ice for 5 to 10 minutes. The reaction mixture is vortexed twice more to resuspend HAP while incubating reaction. The samples in 96-well format are then washed in wash buffer using The FilterMate™ Universal Harvester plate washer (Packard). The washing process transfers HAP pellet containing ligand-bound expressed receptor to Unifilter-96 GF/B filter plate (Packard). The HAP pellet on the filter plate is incubated with 50 μL of MICROSCINT (Packard) scintillant for 30 minutes before being counted on the TopCount microscintillation counter (Packard). IC50s are calculated using DEX as a reference.
For the compound `CC(C)NC(=O)c1ccccc1CC[C@]1(O)CCC2=Cc3c(cnn3-c3ccc(F)cc3)C[C@@]21C` [Example 35, 2-{2-[(4αS,5R)-1-(4-fluorophenyl)-5-hydroxy-4α-methyl-1,4,4α,5,6,7-hexahydrocyclopenta[f]indazol-5-yl]ethyl}-N-isopropylbenzamide], the Ki turned out to be 3.55 nM.

In the case of `C[C@]12Cc3cnn(-c4ccc(F)cc4)c3C=C1CC[C@@]2(O)CCc1ccccc1C(=O)NCC1CC1` [Example 37, N-(cyclopropylmethyl)-2-{2-[(4αS,5R)-1-(4-fluorophenyl)-5-hydroxy-4α-methyl-1,4,4α,5,6,7-hexahydrocyclopenta[r]indazol-5-yl]ethyl}benzamide], the Ki is 0.44 nM.

Regarding `CC(CNC(=O)c1c(F)cccc1CC[C@]1(O)CCC2=Cc3c(cnn3-c3ccc(F)cc3)C[C@@]21C)C(F)(F)F` (stereo partly drawn) [Example 38, 2-fluoro-6-{2-[(4αS,5R)-1-(4-fluorophenyl)-5-hydroxy-4α-methyl-1,4,4α,5,6,7-hexahydrocyclopenta[f]indazol-5-yl]ethyl}-N-(3,3,3-trifluoro-2-methylpropyl)benzamide], the Ki was 0.43 nM.

Regarding `C[C@]12Cc3cnn(-c4ccc(F)cc4)c3C=C1CC[C@@]2(O)CCc1ccccc1C(=O)N1CCC1` [Example 40, (4αS,5R)-5-{2-[2-(azetidin-1-ylcarbonyl)phenyl]ethyl}-1-(4-fluorophenyl)-4α-methyl-1,4,4α,5,6,7-hexahydrocyclopenta[f]indazol-5-ol], the Ki is 6.14 nM.

Compound `COC(=O)C(C)(C)NC(=O)c1c(F)cccc1CC[C@]1(O)CCC2=Cc3c(cnn3-c3ccc(F)cc3)C[C@@]21C` [Example 41, methyl N-(2-fluoro-6-{2-[(4αS,5R)-1-(4-fluorophenyl)-5-hydroxy-4α-methyl-1,4,4α,5,6,7-hexahydrocyclopenta[f]indazol-5-yl]ethyl}benzoyl)-2-methylalaninate] yielded an inhibition constant Ki of 0.83 nM.

Regarding `C[C@]12Cc3cnn(-c4ccccc4)c3C=C1CC[C@@]2(O)CCc1ccccc1C(=O)NC1CC1` [Example 42, N-cyclopropyl-2-{2-[(4αS,5R)-5-hydroxy-4α-methyl-1-phenyl-1,4,4α,5,6,7-hexahydrocyclopenta[f]indazol-5-yl]ethyl}benzamide], the affinity, expressed as Ki, was 2.79 nM.

In the case of `C[C@]12Cc3cnn(-c4ccccc4)c3C=C1CC[C@@]2(O)CCc1ccccc1C(N)=O` [Example 43, 2-{2-[(4αS,5R)-5-hydroxy-4α-methyl-1-phenyl-1,4,4α,5,6,7-hexahydrocyclopenta[f]indazol-5-yl]ethyl}benzamide], the Ki was 5.16 nM.

Regarding `C=C(C)CNC(=O)c1c(F)cccc1CC[C@]1(O)CCC2=Cc3c(cnn3-c3ccc(F)cc3)C[C@@]21C` [Example 44, 2-fluoro-6-{2-[(4αS,5R)-1-(4-fluorophenyl)-5-hydroxy-4α-methyl-1,4,4α,5,6,7-hexahydrocyclopenta[f]indazol-5-yl]ethyl}-N-(2-methylprop-2-en-1-yl)benzamide], the Ki came to 0.6 nM.

Consider `C[C@H](CNC(=O)c1ccccc1CC[C@]1(O)CCC2=Cc3c(cnn3-c3ccc(F)cc3)C[C@@]21C)C(F)(F)F` [Example 45, 2-{2-[(4αS,5R)-1-(4-fluorophenyl)-5-hydroxy-4α-methyl-1,4,4α,5,6,7-hexahydrocyclopenta[f]indazol-5-yl]ethyl}-N-[(2R)-3,3,3-trifluoro-2-methylpropyl]benzamide], for which the Ki came to 1.02 nM.

On to `C[C@]12Cc3cnn(-c4ccc(F)cc4)c3C=C1CC[C@@]2(O)CCc1ccccc1C(=O)N1CCCCC1` [Example 46, (4αS,5R)-1-(4-fluorophenyl)-4α-methyl-5-{2-[2-(piperidin-1-ylcarbonyl)phenyl]ethyl}-1,4,4α,5,6,7-hexahydrocyclopenta[f]indazol-5-ol], for which the affinity corresponds to a Ki of 3.02 nM.

Compound `C[C@]12Cc3cnn(-c4ccc(F)cc4)c3C=C1CC[C@@]2(O)CCc1ccccc1C(=O)N1CCCC1` [Example 47, (4αS,5R)-1-(4-fluorophenyl)-4α-methyl-5-{2-[2-(pyrrolidin-1-ylcarbonyl)phenyl]ethyl}-1,4,4α,5,6,7-hexahydrocyclopenta[f]indazol-5-ol] yielded an inhibition constant (Ki) of 11.5 nM.

On to `CC(C)[C@@H](C)NC(=O)c1c(F)cccc1CC[C@]1(O)CCC2=Cc3c(cnn3-c3ccc(F)cc3)C[C@@]21C` [Example 48, N-[(1R)-1,2-dimethylpropyl]-2-fluoro-6-{2-[(4αS,5R)-1-(4-fluorophenyl)-5-hydroxy-4α-methyl-1,4,4α,5,6,7-hexahydrocyclopenta[f]indazol-5-yl]ethyl}benzamide], for which affinity was put at a Ki of 1.2 nM.

In turn, `CCCNC(=O)c1c(F)cccc1CC[C@]1(O)CCC2=Cc3c(cnn3-c3ccc(F)cc3)C[C@@]21C` [Example 49, 2-fluoro-6-{2-[(4αS,5R)-1-(4-fluorophenyl)-5-hydroxy-4α-methyl-1,4,4α,5,6,7-hexahydrocyclopenta[f]indazol-5-yl]ethyl}-N-propylbenzamide] had an inhibition constant (Ki) of 0.81 nM.

With `CCNC(=O)c1ccccc1CC[C@]1(O)CCC2=Cc3c(cnn3-c3ccc(F)c(F)c3)C[C@@]21C` [Example 51, 2-{2-[(4αS,5R)-1-(3,4-difluorophenyl)-5-hydroxy-4α-methyl-1,4,4α,5,6,7-hexahydrocyclopenta[f]indazol-5-yl]ethyl}-N-ethylbenzamide], affinity was put at a Ki of 7.05 nM.

With `COC(=O)C(C)(C)NC(=O)c1ccccc1CC[C@]1(O)CCC2=Cc3c(cnn3-c3ccc(F)cc3)C[C@@]21C` [Example 52, methyl N-(2-{2-[(4αS,5R)-1-(4-fluorophenyl)-5-hydroxy-4α-methyl-1,4,4α,5,6,7-hexahydrocyclopenta[f]indazol-5-yl]ethyl}benzoyl)-2-methylalaninate], the Ki turned out to be 0.8 nM.

`CC(C)(C)CNC(=O)c1c(F)cccc1CC[C@]1(O)CCC2=Cc3c(cnn3-c3ccc(F)cc3)C[C@@]21C` [Example 55, N-(2,2-dimethylpropyl)-2-fluoro-6-{2-[(4αS,5R)-1-(4-fluorophenyl)-5-hydroxy-4α-methyl-1,4,4α,5,6,7-hexahydrocyclopenta[f]indazol-5-yl]ethyl}benzamide] yielded a Ki of 0.92 nM.

Still in this test, the particulars now being: Table 2; prior-art comparison compounds.
`C[C@]12Cc3cnn(-c4ccc(F)cc4)c3C=C1CC[C@@]2(O)CCc1ccccc1Cl` [Example 40 WO 2004/075840 A2, reference compound] returned a Ki of 20.7 nM.

As to `C[C@]12Cc3cnn(-c4ccc(F)cc4)c3C=C1CCC[C@@]2(O)CCc1ccccc1Cl` [Example 41 WO 2004/075840 A2, reference compound], the inhibition constant (Ki) was 0.32 nM.

As for `C[C@]12Cc3cnn(-c4ccc(F)cc4)c3C=C1CC[C@@]2(O)CCc1ccc(F)cc1` [Example 46 WO 2004/075840 A2, reference compound], the affinity, expressed as Ki, was 1 nM.

The values above are taken from patent publication US8119681B2, “2-[1-phenyl-5-hydroxy or methoxy-4alpha-methyl-hexahydrocyclopenta [ƒ]indazole-5-YL]ethyl phenyl derivatives as glucocorticoid receptor ligands” (Merck Sharp & Dohme Corp., priority 2006, dated 2012).
